# Laboratory results as given in patent US20240254083A1, “HETEROCYCLIC TRPML1 AGONISTS AND USES THEREOF” (Libra Therapeutics, Inc., priority 2021, published 2024).
# Target: T1, hTRPML1 (Homo sapiens, UniProt Q9GZU1)
# T1 construct: expressed in transfected cells
# Test: Cellular TRPML1 assay (FLIPR, GCaMP6f calcium read-out)
# Assay type: cell-based
# Conditions: HEK T-REx/GCaMP6f/TRPML1 cells, FLIPR TETRA, kinetic response over 300 seconds; read-out: hTRPML1 FLIPR pEC50 (converted)
# Experimental: Buffers and reagents • PBS (D-PBS without calcium and magnesium; EuroClone) • Trypsin (Trypsin 0.05%, EDTA 0.02% in PBS; EuroClone) • DMSO (Sigma) • Ca^2+ free Tyrode's buffer: in-house solution (130 mM NaCl, 5 mM KCl, 1 mM MgCl2, 5 mM NaHCO3, 20 mM HEPES in water at pH 7.4; sterile filtered). • Opti-MEM (Gibco) • Agonist: ML-SA1 (Sigma); stock: 60 mM in DMSO, stored at −20° C. • Blocker: ML-SI3 (in house synthesis); stock: 20 mM in DMSO, stored at −20° C.
# Cell line • The final clone for the TRPML1 assay is HEK T-REx/GCaMP6f/TRPML1. • GCaMP6f is a genetically encoded calcium indicator that is stably expressed in this cell line and used as a fluorescent read-out.
# Cells are seeded at 15000 cells/well either in 25 µl/well of growth medium or in 20 μl/well of Optimem+0.5% FBS without selection antibiotics. Twenty-four hours later, cells are assayed for the response to various compounds using the Ca^2+ sensitive GCaMP6f protein stably expressed in the cells as readout.
# The experiment is performed in a 384-well format according to the following procedures for either Ca^2+ free or Optimem conditions: • Ca^2+ free condition (in absence of extracellular Ca^2+): • 24 h after seeding, pre-incubate the cells at room temperature for about 10′. • Then remove the culture medium and replace it with 20 μL of Ca^2+ free Tyrode's buffer. • Start the experiment at the FLIPR^TETRA by injecting 10 μL/w of 3× concentrated test compounds and controls in Ca^2+ free Tyrode's buffer. Monitor the kinetic response over a period of 300 seconds. • Final DMSO concentration: 0.5% • Optimem condition (in presence of extracellular Ca^2+): • 24 h after seeding, pre-incubate the cells at room temperature for about 10′. • Start the experiment at the FLIPR^TETRA by injecting 10 μL/w of 3× concentrated test compounds and controls in Ca^2+ free Tyrode's buffer. Monitor the kinetic response over a period of 300 seconds. • Final DMSO concentration: 0.5%
# Data from FLIPR^TETRA measurements are analyzed with the Genedata Screener© software.
# T1 sequence (Q9GZU1 whole entry): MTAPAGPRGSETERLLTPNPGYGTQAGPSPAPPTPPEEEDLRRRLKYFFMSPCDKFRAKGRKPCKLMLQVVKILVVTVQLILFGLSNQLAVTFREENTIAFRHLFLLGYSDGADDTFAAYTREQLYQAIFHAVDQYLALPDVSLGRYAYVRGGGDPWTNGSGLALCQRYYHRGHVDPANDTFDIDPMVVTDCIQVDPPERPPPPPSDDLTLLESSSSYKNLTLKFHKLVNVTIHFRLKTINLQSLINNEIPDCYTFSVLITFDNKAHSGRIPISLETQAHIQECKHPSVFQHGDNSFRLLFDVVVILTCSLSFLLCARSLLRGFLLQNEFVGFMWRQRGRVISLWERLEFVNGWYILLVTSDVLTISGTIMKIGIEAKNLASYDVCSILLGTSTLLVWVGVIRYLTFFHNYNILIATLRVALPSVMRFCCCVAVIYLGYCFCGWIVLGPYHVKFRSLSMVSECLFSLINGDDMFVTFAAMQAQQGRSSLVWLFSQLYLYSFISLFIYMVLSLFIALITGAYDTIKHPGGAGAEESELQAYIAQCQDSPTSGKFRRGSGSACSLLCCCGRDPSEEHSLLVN
row,Compound,EC50
1,"CN(C)S(=O)(=O)c1ccc(S(=O)(=O)Nc2ccccc2N2CCC[C@H](OCc3ccccc3)C2)cc1 (single isomer, unassigned) [Example 26]",1 to 3.16 µM
2,"CN(C)S(=O)(=O)c1ccc(S(=O)(=O)Nc2ccccc2N2CCC[C@@H](OCc3ccccc3)C2)cc1 (single isomer, unassigned) [Example 27]",1 to 3.16 µM
3,"CN(C)S(=O)(=O)c1ccc(S(=O)(=O)Nc2ccccc2N2CCC[C@@H](Oc3ccccc3)C2)cc1 (single isomer, unassigned) [Example 30]",1 to 3.16 µM
4,"CN(C)S(=O)(=O)c1ccc(S(=O)(=O)Nc2ccccc2N2CCC[C@H](COc3ccccc3)C2)cc1 (single isomer, unassigned) [Example 35]",1 to 3.16 µM
5,"CN(C)S(=O)(=O)c1ccc(S(=O)(=O)Nc2ccccc2N2CCC[C@@H](COc3ccccc3)C2)cc1 (single isomer, unassigned) [Example 36]",1 to 3.16 µM
6,"COCCN(C(=O)c1ccc(S(=O)(=O)N(C)C)cc1)c1ccccc1N1CCC(Oc2ccccc2)CC1 [Example 3, 4-(N,N-dimethylsulfamoyl)-N-(2-methoxyethyl)-N-(2-(4-phenoxypiperidin-1-yl)phenyl)benzamide]",> 3.16 µM
7,"CN(C)S(=O)(=O)c1ccc(C(=O)N(c2ccccc2N2CCC(Oc3ccccc3)CC2)C2CC2)cc1 [Example 5, N-cyclopropyl-4-(N,N-dimethylsulfamoyl)-N-(2-(4-phenoxypiperidin-1-yl)phenyl)benzamide]",> 3.16 µM
8,"CN(C)S(=O)(=O)c1ccc(S(=O)(=O)Nc2cccc(Cl)c2N2CCC(Oc3ccccn3)CC2)cc1 [Example 7, N^1-(3-chloro-2-(4-(pyridin-2-yloxy)piperidin-1-yl)phenyl)-N^4,N^4-dimethylbenzene-1,4-disulfonamide]",1 to 3.16 µM
9,"CN(C(=O)c1ccc(S(=O)(=O)N(C)C)cc1)c1cccc(F)c1N1CCC(Oc2ccccn2)CC1 [Example 9, 4-(N,N-dimethylsulfamoyl)-N-(3-fluoro-2-(4-(pyridin-2-yloxy)piperidin-1-yl)phenyl)-N-methylbenzamide]",> 3.16 µM
10,"CC(C)N(C(=O)c1ccc(S(=O)(=O)N(C)C)cc1)c1cccc(F)c1N1CCC(Oc2ccccn2)CC1 [Example 11, 4-(N,N-dimethylsulfamoyl)-N-(3-fluoro-2-(4-(pyridin-2-yloxy)piperidin-1-yl)phenyl)-N-isopropylbenzamide]",> 3.16 µM
11,"CN(C)S(=O)(=O)c1ccc(C(=O)N(c2cccc(F)c2N2CCC(Oc3ccccn3)CC2)C2CCC2)cc1 [Example 12, N-cyclobutyl-4-(N,N-dimethylsulfamoyl)-N-(3-fluoro-2-(4-(pyridin-2-yloxy)piperidin-1-yl)phenyl)benzamide]",> 3.16 µM
12,"Cc1ccc(N2CCC(Oc3ccccn3)CC2)c(NS(=O)(=O)c2ccc(S(=O)(=O)N(C)C)cc2)c1 [Example 14, N^1,N^1-dimethyl-N^4-(5-methyl-2-(4-(pyridin-2-yloxy)piperidin-1-yl)phenyl)benzene-1,4-disulfonamide]",< 1 µM
13,"CCS(=O)(=O)c1ccc(S(=O)(=O)Nc2cccc(F)c2N2CCC(Oc3ccccn3)CC2)cc1 [Example 15, 4-(ethylsulfonyl)-N-(3-fluoro-2-(4-(pyridin-2-yloxy)piperidin-1-yl)phenyl)benzenesulfonamide]",1 to 3.16 µM
14,"Cc1ccc(N2CCC(Oc3ccccn3)CC2)c(N(C(=O)c2ccc(S(=O)(=O)N(C)C)cc2)C2CCCC2)c1 [Example 16, N-cyclopentyl-4-(N,N-dimethylsulfamoyl)-N-(5-methyl-2-(4-(pyridin-2-yloxy)piperidin-1-yl)phenyl)benzamide]",1 to 3.16 µM
15,"CN(C)S(=O)(=O)c1ccc(S(=O)(=O)Nc2ccccc2N2CCCCCCC2)cc1 [Example 24, N1-(2-(azocan-1-yl)phenyl)-N4,N4-dimethylbenzene-1,4-disulfonamide]",1 to 3.16 µM
16,"Cc1ccc(S(=O)(=O)Nc2ccccc2N2CCN(C(=O)CC(C)(C)C)CC2)cc1C [Example 41, N-(2-(4-(3,3-dimethylbutanoyl)piperazin-1-yl)phenyl)-3,4-dimethylbenzenesulfonamide]",> 3.16 µM
17,"CN(C)S(=O)(=O)c1ccc(S(=O)(=O)Nc2cccc(F)c2N2CCC(Oc3ccc(C(F)(F)F)cn3)CC2)cc1 [Example 43, N^1-(3-fluoro-2-(4-((5-(trifluoromethyl)pyridin-2-yl)oxy)piperidin-1-yl)phenyl)-N^4,N^4-dimethylbenzene-1,4-disulfonamide]",< 1 µM
18,"CN(C)S(=O)(=O)c1ccc(S(=O)(=O)Nc2cccc(F)c2N2CCC(Oc3ncc(Cl)cc3F)CC2)cc1 [Example 45, N^1-(2-(4-((5-chloro-3-fluoropyridin-2-yl)oxy)piperidin-1-yl)-3-fluorophenyl)-N^4,N^4-dimethylbenzene-1,4-disulfonamide]",< 1 µM

# Next, values leading:
row,EC50,Compound
1,> 3.16 µM,"CN(C)S(=O)(=O)c1ccc(S(=O)(=O)Nc2ccccc2N2CCC[C@H](Oc3ccccc3)C2)cc1 (single isomer, unassigned) [Example 29]"
2,1 to 3.16 µM,"CCCN(C(=O)c1ccc(S(=O)(=O)N(C)C)cc1)c1ccccc1N1CCC(Oc2ccccc2)CC1 [Example 4, 4-(N,N-dimethylsulfamoyl)-N-(2-(4-phenoxypiperidin-1-yl)phenyl)-N-propylbenzamide]"
3,1 to 3.16 µM,"CN(C)S(=O)(=O)c1ccc(S(=O)(=O)Nc2cc(Cl)ccc2N2CCC(Oc3ccccn3)CC2)cc1 [Example 13, N^1-(5-chloro-2-(4-(pyridin-2-yloxy)piperidin-1-yl)phenyl)-N^4,N^4-dimethylbenzene-1,4-disulfonamide]"
4,> 3.16 µM,"Cc1ccc(S(=O)(=O)Nc2ccccc2N2CCN(C(=O)OC(C)(C)C)CC2)c(F)c1 [Example 18, tert-butyl 4-(2-((2-fluoro-4-methylphenyl)sulfonamido)phenyl)piperazine-1-carboxylate]"
5,> 3.16 µM,"Cc1ccc(C)c(S(=O)(=O)Nc2ccccc2N2CCN(C(=O)OC(C)(C)C)CC2)c1 [Example 20, tert-butyl 4-(2-((2,5-dimethylphenyl)sulfonamido)phenyl)piperazine-1-carboxylate]"
6,> 3.16 µM,"CC(C)(C)OC(=O)N1CCN(c2ccccc2NS(=O)(=O)c2ccc(OC(F)(F)F)cc2)CC1 [Example 21, tert-butyl 4-(2-((4-(trifluoromethoxy)phenyl)sulfonamido)phenyl) piperazine-1-carboxylate]"
7,< 1 µM,"CN(C)S(=O)(=O)c1ccc(S(=O)(=O)Nc2cccc(F)c2N2CCC(C)(c3ccccc3)CC2)cc1 [Example 37, N^1-(3-fluoro-2-(4-methyl-4-phenylpiperidin-1-yl)phenyl)-N^4,N^4-dimethylbenzene-1,4 disulfonamide]"
8,> 3.16 µM,"Cc1ccc(S(=O)(=O)Nc2ccccc2N2CCN(C(=O)Oc3ccccc3)CC2)cc1C [Example 39, phenyl 4-(2-((3,4-dimethylphenyl)sulfonamido)phenyl) piperazine-1-carboxylate]"
9,> 3.16 µM,"CC(C)(C)CC(=O)N1CCN(c2ccccc2NS(=O)(=O)c2ccc(C(F)(F)F)cc2)CC1 [Example 42, N-(2-(4-(3,3-dimethylbutanoyl)piperazin-1-yl)phenyl)-4-(trifluoromethyl)benzenesulfonamide]"
10,< 1 µM,"CN(C)S(=O)(=O)c1ccc(S(=O)(=O)Nc2cccc(F)c2N2CCC(Oc3ccc(Cl)cn3)CC2)cc1 [Example 44, N^1-(2-(4-((5-chloropyridin-2-yl)oxy)piperidin-1-yl)-3-fluorophenyl)-N^4,N^4-dimethylbenzene-1,4-disulfonamide]"
